# Experimental data from patent US20180353460A1, “METHODS OF TREATING UROLOGICAL DISORDERS USING SARMs” (priority 2014, published 2018).
# Like-named read-outs stand apart in the source and are kept apart here.
# Legend:
# levator ani muscle [1] = experiment: Hershberger assays of compounds H-1 to H-4; format: in vivo, rat; details: calculated in Win Non-Lin
# Experimental: FIG. 3 depicts results of Hershberger assays of compounds of the invention as described in Example 17. AUC is area under the concentration-time curve.
# Hershberger assays as described above for Formulas VIII-XIV were also performed on compounds H-1, H-2, H-3, & H-4, as reported in FIG. 3, along with AR binding data in some cases in Table 11. The reported Emax values were calculated in Win Non-Lin®.
# levator ani muscle [2] = experiment: Levator ani muscle weight in castrated rats treated subcutaneously for 14 days; format: in vivo, rat; details: castrated Sprague Dawley rats, subcutaneous, 3 mg/day
# Description: At sacrifice, organs were weighed and expressed as raw organ weights. Values are expressed as average±S.D. Increased size and strength of pelvic floor muscles is one mechanism by which SARMs are believed to affect UI.
# At sacrifice, organs were weighed and expressed as raw organ weights. Values are expressed as average±S.D.
# ovariectomized rat model = details: cited from earlier work
# [3] = system: women with stress urinary incontinence; details: cited from earlier work; for median incontinence episode frequency decreased: placebo 41%
# [4] = compared with the vehicle control
structure (smiles),measurement,setting,value
C[C@](O)(COc1ccc(F)cc1)C(=O)Nc1ccc([N+](=O)[O-])c(C(F)(F)F)c1 [Compound H-1],Emax in levator ani muscle,levator ani muscle [1],75 ± 4 % of intact control
C[C@](O)(COc1ccc(Cl)cc1)C(=O)Nc1ccc([N+](=O)[O-])c(C(F)(F)F)c1 [Compound H-2],Emax in levator ani muscle,levator ani muscle [1],136 ± 9 % of intact control
C[C@](O)(COc1ccc(I)cc1)C(=O)Nc1ccc([N+](=O)[O-])c(C(F)(F)F)c1 [Compound H-4],Emax in levator ani muscle,levator ani muscle [1],95 ± 7 % of intact control
"C[C@]12CCC(=O)C[C@@H]1CC[C@@H]1[C@@H]2CC[C@]2(C)[C@@H](O)CC[C@@H]12 [DHT, dihydrotestosterone, reference compound]",levator ani muscle weight,levator ani muscle [2],elicits hypertrophy of the levator ani muscle
C[C@H](Nc1ccc(C#N)c(Cl)c1Cl)C(C)(C)O [GSK2849466A],increase of amplitude of urethral responses during sneezing (AURS),ovariectomized rat model; [4],74%
same,increase of urethral baseline pressure (UBP),ovariectomized rat model; [4],64%
same,rats with fluid leakage during sneezing,ovariectomized rat model; vehicle group 8/8,1/8
CNCC[C@H](Oc1cccc2ccccc12)c1cccs1 [duloxetine],reduction in incontinence episode frequency,"[3]; Dmochowski et al., placebo 27%",50%
same,median incontinence episode frequency decreased,[3]; duloxetine 20 mg/day,54%
same,median incontinence episode frequency decreased,[3]; duloxetine 40 mg/day,59%
same,median incontinence episode frequency decreased,[3]; duloxetine 80 mg/day,64%
